Laboratory results published in PubChem BioAssay AID1918946 (Molecular Pharmacology Branch, DTP, NCI, 2023).

Tested on: 885512-296-R-J2-PDC complex spheroid viability
Test: Anticancer human tumor 885512-296-R-J2-PDC patient-derived breast carcinoma cell line growth inhibition
Conditions: for IC50: curve of first compound; for viability, T/C: stronger effect = lower value
Procedure, shortened: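 Multicellular complex spheroids of tumor cells with human endothelial cells (HUVEC) and mesenchymal stem cells; the LSD1 inhibitor iadademstat was combined with standard-of-care or investigational agents. Top concentration at or near clinical Cmax, half-log dilutions; final DMSO ≤0.25%.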

[1] = second compound 0.1 µM, first compound 0.0316 µM
[2] = second compound 0.1 µM, first compound 0.1 µM
[3] = second compound 0.1 µM, first compound 0.316 µM
[4] = second compound 0.1 µM, first compound 1 µM
[5] = second compound 0.1 µM, first compound 3.16 µM
[6] = second compound 0.1 µM, first compound 10 µM
[7] = second compound 0.316 µM, first compound 0.0316 µM
[8] = second compound 0.316 µM, first compound 0.1 µM
[9] = second compound 0.316 µM, first compound 0.316 µM
[10] = second compound 0.316 µM, first compound 1 µM
[11] = second compound 0.316 µM, first compound 3.16 µM
[12] = second compound 0.316 µM, first compound 10 µM
[13] = second compound 1 µM, first compound 0.0316 µM
[14] = second compound 1 µM, first compound 0.1 µM
[15] = second compound 1 µM, first compound 0.316 µM
[16] = second compound 1 µM, first compound 1 µM
[17] = second compound 1 µM, first compound 3.16 µM
[18] = second compound 1 µM, first compound 10 µM
[19] = second compound 3.16 µM, first compound 0.0316 µM
[20] = second compound 3.16 µM, first compound 0.1 µM
[21] = second compound 3.16 µM, first compound 0.316 µM
[22] = second compound 3.16 µM, first compound 1 µM
[23] = second compound 3.16 µM, first compound 3.16 µM
[24] = second compound 3.16 µM, first compound 10 µM
[25] = second compound 10 µM, first compound 0.0316 µM
[26] = second compound 10 µM, first compound 0.1 µM
[27] = second compound 10 µM, first compound 0.316 µM
[28] = second compound 10 µM, first compound 1 µM
[29] = second compound 10 µM, first compound 3.16 µM
[30] = second compound 10 µM, first compound 10 µM
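Further: spheroids exposed to agents for 7 days before viability read.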

Structure (SMILES): CC(C)c1c(-c2ccccc2)nc2c(C#N)c[nH]n2c1=O + NC1CC1c1ccc(-c2cccc(O)c2)cc1
- IC50 (second compound 0.1 µM): > 10 µM
- IC50 (second compound 0.316 µM): > 10 µM
- IC50 (second compound 1 µM): > 10 µM
- IC50 (second compound 3.16 µM): > 10 µM
- IC50 (second compound 10 µM): 6.76 µM
- viability, T/C [1]: 120%
- viability, T/C [2]: 128%
- viability, T/C [3]: 127%
- viability, T/C [4]: 118%
- viability, T/C [5]: 119%
- viability, T/C [6]: 84.8%
- viability, T/C [7]: 140%
- viability, T/C [8]: 124%
- viability, T/C [9]: 128%
- viability, T/C [10]: 128%
- viability, T/C [11]: 137%
- viability, T/C [12]: 87.4%
- viability, T/C [13]: 132%
- viability, T/C [14]: 121%
- viability, T/C [15]: 118%
- viability, T/C [16]: 118%
- viability, T/C [17]: 125%
- viability, T/C [18]: 74.9%
- viability, T/C [19]: 138%
- viability, T/C [20]: 131%
- viability, T/C [21]: 118%
- viability, T/C [22]: 108%
- viability, T/C [23]: 124%
- viability, T/C [24]: 71.9%
- viability, T/C [25]: 88%
- viability, T/C [26]: 88.3%
- viability, T/C [27]: 88.5%
- viability, T/C [28]: 70.1%
- viability, T/C [29]: 72.9%
- viability, T/C [30]: 40.1%

Structure (SMILES): CC1COCCN1c1cc(-c2ccnn2C)c2ccnc(-c3ccn[nH]3)c2n1 (stereo not given) + NC1CC1c1ccc(-c2cccc(O)c2)cc1
- IC50 (second compound 0.1 µM): < 0.00316 µM
- IC50 (second compound 0.316 µM): < 0.00316 µM
- IC50 (second compound 1 µM): < 0.00316 µM
- IC50 (second compound 3.16 µM): < 0.00316 µM
- IC50 (second compound 10 µM): < 0.00316 µM
- viability, T/C (second compound 0.1 µM, first compound 0.00316 µM): 3.29%
- viability, T/C (second compound 0.1 µM, first compound 0.01 µM): 2.63%
- viability, T/C [1]: 2.05%
- viability, T/C [2]: 1.94%
- viability, T/C [3]: 2.98%
- viability, T/C [4]: 3.66%
- viability, T/C (second compound 0.316 µM, first compound 0.00316 µM): 4.19%
- viability, T/C (second compound 0.316 µM, first compound 0.01 µM): 3.06%
- viability, T/C [7]: 2.44%
- viability, T/C [8]: 2%
- viability, T/C [9]: 3.18%
- viability, T/C [10]: 4.22%
- viability, T/C (second compound 1 µM, first compound 0.00316 µM): 3.96%
- viability, T/C (second compound 1 µM, first compound 0.01 µM): 3.23%
- viability, T/C [13]: 2.3%
- viability, T/C [14]: 2.21%
- viability, T/C [15]: 3.06%
- viability, T/C [16]: 4.25%
- viability, T/C (second compound 3.16 µM, first compound 0.00316 µM): 2.66%
- viability, T/C (second compound 3.16 µM, first compound 0.01 µM): 2.58%
- viability, T/C [19]: 1.89%
- viability, T/C [20]: 2.1%
- viability, T/C [21]: 2.93%
- viability, T/C [22]: 4.29%
- viability, T/C (second compound 10 µM, first compound 0.00316 µM): 3.44%
- viability, T/C (second compound 10 µM, first compound 0.01 µM): 2.73%
- viability, T/C [25]: 1.93%
- viability, T/C [26]: 2.12%
- viability, T/C [27]: 2.49%
- viability, T/C [28]: 4.01%

Structure (SMILES): COc1ccc([C@@H](O)c2cc(-c3ncnc4cc(N5CCOCC5)ccc34)c(F)cc2Cl)nn1 + NC1CC1c1ccc(-c2cccc(O)c2)cc1
- IC50 (second compound 0.1 µM): 3.51 µM
- IC50 (second compound 0.316 µM): 3.86 µM
- IC50 (second compound 1 µM): 3.33 µM
- IC50 (second compound 3.16 µM): 1.45 µM
- IC50 (second compound 10 µM): 0.448 µM
- viability, T/C [1]: 126%
- viability, T/C [2]: 127%
- viability, T/C [3]: 94.4%
- viability, T/C [4]: 86.9%
- viability, T/C [5]: 54.5%
- viability, T/C [6]: 12.9%
- viability, T/C [7]: 111%
- viability, T/C [8]: 121%
- viability, T/C [9]: 103%
- viability, T/C [10]: 94.7%
- viability, T/C [11]: 57.6%
- viability, T/C [12]: 11.8%
- viability, T/C [13]: 98.3%
- viability, T/C [14]: 109%
- viability, T/C [15]: 87.9%
- viability, T/C [16]: 78.9%
- viability, T/C [17]: 52.2%
- viability, T/C [18]: 11.8%
- viability, T/C [19]: 108%
- viability, T/C [20]: 104%
- viability, T/C [21]: 71.6%
- viability, T/C [22]: 58.8%
- viability, T/C [23]: 35.8%
- viability, T/C [24]: 9.34%
- viability, T/C [25]: 78.4%
- viability, T/C [26]: 72.1%
- viability, T/C [27]: 50.6%
- viability, T/C [28]: 39.7%
- viability, T/C [29]: 25.5%
- viability, T/C [30]: 6.59%
